Measured values from patent US4429044A, “Preparation of an alkaline protease from flavobacterium arborescens” (Miles Laboratories, Inc., priority 1982, dated 1984).

B1: SSI: streptomyces subtilisin inhibitor (protein, UniProt P01006 32-144, looked up)
Subtilisin inhibitor: DAPSALYAPSALVLTVGKGVSATTAAPERAVTLTCAPGPSGTHPAAGSACADLAAVGGDLNALTRGEDVMCPMVYDPVLLTVDGVWQGKRVSYERVFSNECEMNAHGSSVFAF

What follows are molecules tested on F. arborescens protease.
Format: biochemical, Flavobacterium arborescens
`O=S(=O)(F)Cc1ccccc1` [PMSF, phenylmethyl sulfonyl fluoride] was tested, and the “Activity of protease in presence of inhibitor” value was 1.9 units and the “Effect of inhibitor on protease activity (in words)” value was “no effect”. For `CCN1C(=O)C=CC1=O` [NEM, N--ethyl maleimide], the “Activity of protease in presence of inhibitor” value was 2.0 units. In the case of `O=C(O)CN(CCN(CC(=O)O)CC(=O)O)CC(=O)O` [EDTA, ethylenediamine tetraacetate], the “Activity of protease in presence of inhibitor” value is reported as 4.1 units. B1 was tested, and the “Activity of protease in presence of inhibitor” value was 1.6 units and the “Effect of inhibitor on protease activity (in words)” value was “strongly inhibited”.
